In paper PMC11801377, “A uniquely efficacious type of CFTR corrector with complementary mode of action” (Science Advances, 2024):

Molecular target: T1, WT-CFTR (Homo sapiens, UniProt P13569)
T1 construct: host or cells: CFBE41o-
Test: Anti-CFTR immunoblotting (C-band) in CFBE41o- cells expressing WT-CFTR
Format: cell-based
Settings: 24 h
Procedure: Cystic fibrosis bronchial epithelial (CFBE41o^−) cells stably expressing the human WT CFTR or F508del-CFTR mutant [generated in ([26])] were a gift from J. P. Clancy (University of Alabama, Birmingham) and cultured on fibronectin-coated plates (FNC coating mix; Enzo) in minimum essential medium with Earl’s salt (Thermo Fisher Scientific) containing 10% of heat-inactivated fetal bovine serum (FBS; Gibco), penicillin (100 U/ml), streptomycin ([…]) (Thermo Fisher Scientific), and puromycin (2 μg/ml; Sigma-Aldrich). […]
All cells were washed with ice-cold PBS and then lysed for 1 hour on ice with radioimmunoprecipitation assay (RIPA) buffer (Sigma-Aldrich, #R0278) containing 100 mM Na-fluoride, 4 mM Na-orthovanadate, 1 mM phenylmethylsulfonyl fluoride, 1 mM dithiothreitol, and benzonase (100 U/ml; Sigma-Aldrich). […] Samples were mixed with LDS sample buffer (Invitrogen), resolved by SDS-PAGE on 4 to 12% Novex bis-tris precast gels (Thermo Fisher Scientific), and analyzed by Western blotting using a wet transfer method (GenScript) and polyvinylidene difluoride membranes (Life Technologies). […] Membranes were treated with Western Lightning enhanced chemiluminescence substrate (PerkinElmer), and the chemiluminescence signal was recorded and quantified using a chemiluminescence reader and the corresponding software (Fusion FX 7, Evolution Edge, Vilber). […]

T1 sequence (P13569 whole entry): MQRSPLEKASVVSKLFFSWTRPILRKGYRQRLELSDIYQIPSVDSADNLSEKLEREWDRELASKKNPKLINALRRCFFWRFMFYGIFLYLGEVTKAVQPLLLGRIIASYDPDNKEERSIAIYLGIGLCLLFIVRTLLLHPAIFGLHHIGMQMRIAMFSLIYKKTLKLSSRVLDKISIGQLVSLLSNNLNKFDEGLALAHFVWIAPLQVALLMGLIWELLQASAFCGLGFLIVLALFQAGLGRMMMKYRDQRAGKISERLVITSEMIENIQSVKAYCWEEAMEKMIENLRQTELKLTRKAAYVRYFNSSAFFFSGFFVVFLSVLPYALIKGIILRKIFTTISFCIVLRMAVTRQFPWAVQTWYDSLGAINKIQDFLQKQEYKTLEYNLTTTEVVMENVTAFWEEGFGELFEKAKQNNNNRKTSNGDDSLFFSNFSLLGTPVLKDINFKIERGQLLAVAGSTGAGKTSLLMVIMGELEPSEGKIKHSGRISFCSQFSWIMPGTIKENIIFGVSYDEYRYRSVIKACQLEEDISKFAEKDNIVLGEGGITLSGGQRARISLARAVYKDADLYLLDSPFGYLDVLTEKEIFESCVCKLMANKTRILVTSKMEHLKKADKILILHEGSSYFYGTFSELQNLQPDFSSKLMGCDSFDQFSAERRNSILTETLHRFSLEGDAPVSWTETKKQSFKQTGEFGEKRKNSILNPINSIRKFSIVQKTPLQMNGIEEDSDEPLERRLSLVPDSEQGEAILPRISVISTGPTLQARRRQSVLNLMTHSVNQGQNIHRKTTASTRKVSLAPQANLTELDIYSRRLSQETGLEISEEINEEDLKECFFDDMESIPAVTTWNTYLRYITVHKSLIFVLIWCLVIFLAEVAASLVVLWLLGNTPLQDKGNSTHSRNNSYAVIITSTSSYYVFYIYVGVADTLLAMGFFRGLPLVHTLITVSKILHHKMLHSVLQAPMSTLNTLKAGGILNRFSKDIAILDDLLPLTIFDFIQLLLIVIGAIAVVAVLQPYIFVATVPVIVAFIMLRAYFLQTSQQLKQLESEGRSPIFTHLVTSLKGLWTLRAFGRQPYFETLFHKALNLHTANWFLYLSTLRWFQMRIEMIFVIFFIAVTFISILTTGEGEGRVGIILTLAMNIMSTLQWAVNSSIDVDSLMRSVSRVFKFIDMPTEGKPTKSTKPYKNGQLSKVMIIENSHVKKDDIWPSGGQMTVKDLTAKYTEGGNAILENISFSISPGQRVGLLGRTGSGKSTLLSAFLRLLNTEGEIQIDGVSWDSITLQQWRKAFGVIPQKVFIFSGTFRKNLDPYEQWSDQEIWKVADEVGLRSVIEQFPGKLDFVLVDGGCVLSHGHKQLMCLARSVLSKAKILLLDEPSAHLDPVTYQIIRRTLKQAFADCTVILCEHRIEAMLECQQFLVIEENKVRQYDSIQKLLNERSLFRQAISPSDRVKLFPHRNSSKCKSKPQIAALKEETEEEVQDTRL

increase in WT-CFTR C-band: ~ 2 fold
Compound: COc1cc(CCNC(=O)C2CC(=O)N(C)C(CC(C)C)C(=O)N3CCCCC3C(=O)NC(Cc3ccccc3)COc3ccc4ncc(F)cc4c3C(=O)N2)on1 (stereo not shown) [IDOR-3]
